Drawing on ChEMBL document CHEMBL1152205, “Dihydropyrazolopyrimidine inhibitors of K(V)1.5 (I(Kur))” (Bioorg Med Chem Lett, 2008), this text covers IC50, inhibition and fold change (FC) for 16 molecules.

In series [1] the target is T1, Potassium voltage-gated channel subfamily A member 5 (Homo sapiens, UniProt P22460). The experiment in a line: Inhibition of human Kv1.5 channel expressed in mouse L929 cells by EP voltage clamp technique. It is filed as cell-based.
Series [2] is described as follows: Inhibition of L-type calcium channel expressed in HEK293 cells. Format: cell-based.
Series [3] has as its target T1, Potassium voltage-gated channel subfamily A member 5. The series can be described thus: Inhibition of human Kv1.5 channel expressed in Xenopus oocytes at 10 uM by EP voltage clamp technique. It is filed as cell-based. The settings on record: Oocyte.
Series [4] can be described thus: Inhibition of potassium channel IKs at 10 uM.
Series [5] addresses T1, Potassium voltage-gated channel subfamily A member 5. The experiment in a line: Inhibition of human Kv1.5 channel expressed in Xenopus oocytes at 3 uM by EP voltage clamp technique. Format: cell-based. The settings on record: Oocyte.
Series [6] can be described thus: Inhibition of L-type calcium channel ICa at 10 uM.
The next series concerns the target hERG (KCNH2) (Homo sapiens, UniProt Q12809). The experiment in a line: Inhibition of human ERG at 10 uM.
For the next series, the species on record is Homo sapiens. The series can be described thus: Selectivity of human Kv1.5 channel over human ERG.
Series [7] in a line: Inhibition of sodium channel INa at 10 uM by patch clamp technique.
Series [8] in a line: Selectivity of human Kv1.5 channel over sodium channel INa.
Series [9] can be described thus: Selectivity of human Kv1.5 channel over L-type calcium channel ICa.
Series [10] can be described thus: Inhibition of potassium channel IK1 at 10 uM.
Series [11] is described as follows: Selectivity of human Kv1.5 channel over potassium channel IK1.
The nature of series [12]: Selectivity of human Kv1.5 channel over potassium channel IKs.
In series [13] the target is T1, Potassium voltage-gated channel subfamily A member 5. The experiment in a line: Inhibition of human Kv1.5 channel expressed in mouse L929 cells at 1 uM by EP voltage clamp technique. It is filed as cell-based.

Structures are written as SMILES.

As usually defined, the IC50 is the point on the concentration scale where inhibition reaches its midpoint. In general, inhibition refers to the drop in the measured response relative to a control, in per cent.

T1 sequence (P22460 whole entry): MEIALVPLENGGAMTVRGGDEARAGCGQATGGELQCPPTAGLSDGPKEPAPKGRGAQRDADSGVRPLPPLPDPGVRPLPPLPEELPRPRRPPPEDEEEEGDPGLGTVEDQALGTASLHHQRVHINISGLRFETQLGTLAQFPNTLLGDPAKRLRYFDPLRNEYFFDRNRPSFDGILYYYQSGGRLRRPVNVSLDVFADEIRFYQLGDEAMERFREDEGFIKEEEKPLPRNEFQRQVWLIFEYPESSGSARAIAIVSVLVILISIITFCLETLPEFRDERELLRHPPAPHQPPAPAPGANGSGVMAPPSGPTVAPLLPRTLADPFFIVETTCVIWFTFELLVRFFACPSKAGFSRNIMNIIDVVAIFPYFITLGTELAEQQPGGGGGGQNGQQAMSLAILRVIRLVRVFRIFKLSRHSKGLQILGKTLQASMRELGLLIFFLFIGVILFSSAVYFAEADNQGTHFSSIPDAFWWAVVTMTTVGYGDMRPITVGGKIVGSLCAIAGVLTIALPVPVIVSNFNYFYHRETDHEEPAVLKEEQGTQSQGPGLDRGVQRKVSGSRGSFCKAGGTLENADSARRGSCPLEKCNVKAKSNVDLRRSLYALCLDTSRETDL
Chain of hERG (KCNH2) (Q12809 whole entry): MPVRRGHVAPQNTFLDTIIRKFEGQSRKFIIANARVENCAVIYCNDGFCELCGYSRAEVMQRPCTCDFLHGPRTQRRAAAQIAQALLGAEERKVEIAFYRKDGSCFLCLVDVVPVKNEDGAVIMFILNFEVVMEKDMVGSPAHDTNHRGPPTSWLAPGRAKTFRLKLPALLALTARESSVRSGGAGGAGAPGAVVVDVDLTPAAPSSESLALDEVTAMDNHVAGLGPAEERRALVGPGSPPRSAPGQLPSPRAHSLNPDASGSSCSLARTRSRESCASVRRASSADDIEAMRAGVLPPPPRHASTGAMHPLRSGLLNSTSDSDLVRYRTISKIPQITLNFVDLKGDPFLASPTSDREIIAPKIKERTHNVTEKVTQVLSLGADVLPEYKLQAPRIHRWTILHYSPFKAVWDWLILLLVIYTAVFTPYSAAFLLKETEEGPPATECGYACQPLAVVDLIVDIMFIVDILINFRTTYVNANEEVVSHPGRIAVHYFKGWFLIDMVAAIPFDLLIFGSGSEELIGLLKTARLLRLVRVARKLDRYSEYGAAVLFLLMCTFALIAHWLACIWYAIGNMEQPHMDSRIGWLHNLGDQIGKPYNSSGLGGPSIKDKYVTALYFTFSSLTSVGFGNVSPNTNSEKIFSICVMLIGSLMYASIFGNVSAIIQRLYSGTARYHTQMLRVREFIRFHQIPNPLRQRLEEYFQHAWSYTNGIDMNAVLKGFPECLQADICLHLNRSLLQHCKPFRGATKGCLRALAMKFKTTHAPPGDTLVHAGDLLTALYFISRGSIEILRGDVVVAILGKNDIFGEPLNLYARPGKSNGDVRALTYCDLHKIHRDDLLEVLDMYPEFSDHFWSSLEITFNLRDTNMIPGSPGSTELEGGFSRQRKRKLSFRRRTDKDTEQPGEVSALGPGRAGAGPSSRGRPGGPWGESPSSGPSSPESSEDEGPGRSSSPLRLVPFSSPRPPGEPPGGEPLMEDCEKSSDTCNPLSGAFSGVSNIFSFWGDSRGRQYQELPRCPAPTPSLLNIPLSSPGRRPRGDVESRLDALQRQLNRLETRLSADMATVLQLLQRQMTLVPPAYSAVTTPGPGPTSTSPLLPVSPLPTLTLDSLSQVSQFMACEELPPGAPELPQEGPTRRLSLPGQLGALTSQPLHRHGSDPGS

Take `CCOC(=O)C1=C(C)Nc2ccnn2C1c1cccc(Cl)c1Cl` (stereo unspecified): the half-maximal inhibitory concentration (IC50) in series [1] amounted to 1100 nM; in series [2], 9.38 µM.

In series [3], `CC1=C(C(=O)Nc2cccnc2)C(c2ccc(Cl)c(Cl)c2)n2nccc2N1` (stereo unspecified) displayed an inhibition of 9%.

Take `CC1=C(C(=O)N2CCN(c3ccc(F)cc3)CC2)[C@@H](c2cccc(Cl)c2Cl)n2nccc2N1`: the inhibition in series [4] turned out to be 7%; in series [5], 67%; in series [6] it was 55%; in [7], 14%; in series [10], 1%. Also, the inhibition at 10 µM at hERG (KCNH2) was 41%. In addition, the IC50 in [1] turned out to be 160 nM. Moreover, the fold change (FC) (in the series listed under Homo sapiens; in [8]; in [9]; in series [11]; in series [12]) was more than 50 throughout.

`CC1=C(C(=O)N2CCN(c3ccccc3)CC2)C(c2ccc(Cl)c(Cl)c2)n2nccc2N1` (stereo unspecified) returned a concentration for half-maximal inhibition (IC50) in series [1] of 85 nM. In addition, the inhibition in series [3] came out at 82%.

As to `CC1=C(C(=O)N2CCN(c3ccc(F)cc3)CC2)C(c2ccccc2C)n2nccc2N1` (stereo unspecified), the values for the inhibition in series [5] and in [13] were 37% and 48%, respectively.

As for `CCN(CC)C(=O)C1=C(C)Nc2ccnn2C1c1ccc(Cl)c(Cl)c1` (stereo unspecified), the inhibition in series [5] is 61%. In series [1], this molecule showed a half-inhibitory concentration (IC50) of 440 nM.

Consider `CC1=C(C(=O)N2CCN(c3ccc(F)cc3)CC2)C(c2cccc(C)c2)n2nccc2N1` (stereo unspecified), for which the inhibition in series [5] is 57%. This molecule also came in with an IC50 in series [1] of 540 nM.

The molecule `CCCCCNC(=O)C1=C(C)Nc2ccnn2C1c1ccc(Cl)c(Cl)c1` (stereo unspecified) displayed an inhibition in [5] of 48%. This molecule also yielded an IC50 in series [1] of 590 nM.

`CC1=C(C(=O)N2CCN(c3ccc(F)cc3)CC2)C(c2ccc(Cl)s2)n2nccc2N1` (stereo unspecified): the inhibition in series [5] stood at 51%. In series [1], this molecule returned an IC50 of 230 nM.

In [5], `CC1=C(C(=O)N2CCN(c3ccc(F)cc3)CC2)C(c2ccc(Cl)c(Cl)c2)n2nccc2N1` (stereo unspecified) registered an inhibition of 65%. Besides, in [1], inhibition was half-maximal at 120 nM (IC50).

Turning to `CCCN(CCC)C(=O)C1=C(C)Nc2ccnn2C1c1ccc(Cl)c(Cl)c1` (stereo unspecified), the inhibition in series [5] was 72%. Also, inhibition in series [1] was half-maximal at 70 nM (IC50).

In the case of `COC(=O)C1=C(C)NC(C)=C(C(=O)OC)C1c1ccccc1[N+](=O)[O-]` [NIFEDIPINE], the 50% inhibitory concentration (IC50) came to 6100 nM in series [1] and 0.06 µM in [2].

For the molecule `CC1=C(C(=O)Nc2ccccc2)C(c2ccc(Cl)c(Cl)c2)n2nccc2N1` (stereo unspecified), the IC50 in series [1] is 170 nM. Moreover, in [3], the inhibition amounted to 83%.

With `CC1=C(C(=O)N2CCN(c3ccc(F)cc3)CC2)C(c2sc3ccccc3c2C)n2nccc2N1` (stereo unspecified), in series [5], the inhibition came out at 56%. In [1], this molecule came in with an IC50 of 200 nM.

Regarding `CC1=C(C(=O)NCCc2ccccc2)C(c2ccc(Cl)c(Cl)c2)n2nccc2N1` (stereo unspecified), the 50% inhibitory concentration (IC50) in series [1] came out at 100 nM. Moreover, the inhibition in series [3] was 84%.

Regarding `CC1=C(C(=O)N2CCN(c3ccc(F)cc3)CC2)[C@@H](c2ccc(Cl)c(Cl)c2)n2nccc2N1`, the inhibition stood at 21% in series [4]; 72% in [5]; 59% in series [6]; 42% in series [7]; 3% in [10]. 10 µM produced 69% inhibition at hERG (KCNH2). The molecule also came in with a 50% inhibitory concentration (IC50) in series [1] of 70 nM. The fold change (FC) (in the series listed under Homo sapiens; in series [8]; in series [9]; in [11]; in [12]) was more than 50 throughout.
